“And” between values parts separate entries of the source, which are not always exact repeats. Identical values can stand only once. “Also recorded” adds a separate entry of the source. Where a SMILES comes first, the peptide text is derived from it. Bridges are numbered along the chain shown (N, C = ends). Where no end group is shown, it is not given here.
Experiments:
[1] = target: T1, recombinant human CD13 (rCD13) (Homo sapiens, UniProt P15144); assay: rCD13 enzyme inhibition assay, L-alanine 7-amido-4-methylcoumarin substrate; format: biochemical
T1 construct: consisting of the CD13 extracellular domain expressed in HEK-293 cells; His-tag; purchased Sino Biological 10051-H08H; host or cells: HEK-293 cells
Description: Recombinant CD13 (rCD13) enzyme activity and inhibition assays were performed as described previously using L-alanine-p-nitroanilide or L-alanine 7-amido-4-methylcoumarin as substrates in 60 mM Tris–HCl, pH 7.4, or 60 mM potassium phosphate buffer, pH 7.4. Mixtures containing peptides at various concentrations, rCD13 (0.2 µg/mL), and L-alanine-p-nitroanilide substrate (0.5 mM) in 60 mM potassium phosphate buffer, pH 7.4 (total volume, 0.1 ml) were prepared and left to react for 30 min at 37 °C. The products were then analyzed using a plate reader (iMark Microplate Absorbance Reader; Bio-Rad). Alternatively, the assay was performed using 0.1 mM L-alanine 7-amido-4-methylcoumarin in 60 mM Tris–HCl, pH 7.4, as a substrate. Fluorescence intensity of methylcoumarin was measured on an Infinite 200 PRO plate reader (Tecan) using the following settings: excitation wavelength: 341 nm; emission wavelength: 441 nm; excitation bandwidth: 9; emission bandwidth: 20 nm; gain: 109 manual; number of flashes: 25; integration time: 20 µs; lag time: 0 µs; settle time: 0 ms.
The IC50 of each inhibitor was calculated by non-linear regression analysis of inhibition data using GraphPad Prism Software (GraphPad Software, Version 9.00, San Diego, CA). Steady-state enzyme kinetic analyses were performed using various concentrations of L-alanine-p-nitroanilide (0–1.5 mM) and VGCARRYCS peptide (0–900 nM). The initial velocities (Vo) were calculated from the slopes of the first 5 min of reaction. The enzyme inhibitory constant (Ki) was calculated using the competitive enzyme inhibition model in GraphPad Prism Software.
Fig. 2 G4 recognizes soluble forms of CD13, with higher affinity and selectivity than bestatin, and the membrane forms expressed on the surface of HUVEC cells. A Inhibitory effects of G4 and bestatin on the enzymatic activities of different aminopeptidases (rCD13, APA, and APB). Various amounts of G4 or bestatin were incubated with rCD13 (0.2 µg/mL in 60 mM Tris–HCl pH 7.4), APA (0.2 µg/mL in 60 mM Tris–HCl pH 7.4, 50 mM calcium chloride, 200 mM sodium chloride) or APB (0.2 µg/mL in 60 mM Tris–HCl pH 7.4, 100 mM potassium chloride) and the corresponding substrates at 0.1 mM (L-alanine-7-amido-4-methylcoumarin for rCD13, L-glutamic acid γ-(7-amido-4-methylcoumarin) for APA, and L-arginine-7-amido-4-methylcoumarin for APB). The mixtures were incubated for 30 min at 37 °C, and the cleavage of each substrate was monitored by measuring the fluorescence of methylcoumarin (λex 341 nm; λem 441 nm) using an Infinite 200 PRO plate reader (Tecan). Three independent experiments were performed for each enzyme. The results of one representative experiment for each enzyme are shown (mean ± SEM, duplicates). B Inhibitory effects of G4 and bestatin on soluble CD13 immunocaptured from human serum (sCD13) using microtiter plates coated with anti-CD13 mAb WM15. The microtiter plate was filled with a solution of mAb WM15 (5 μg/ml in DPBS) and incubated overnight at 4 °C. The plate was then washed with DPBS, blocked with 3% bovine serum albumin (BSA) in DPBS, and filled with human serum containing soluble CD13 (diluted 1:2 with DPBS containing 2% BSA). After washing with DPBS, mixtures of G4 or bestatin (0–100 µM in 60 mM Tris–HCl, pH 7.4) and L-alanine p-nitroanilide hydrochloride substrate (4.5 mM in 60 mM Tris–HCl, pH 7.4) were added and left to incubate at 37 °C for 2 h. Substrate cleavage by sCD13 dissociated from mAb WM15 was then monitored by measuring the absorbance at 405 nm in each well using a plate reader (Bio-Rad). The results of one experiment performed in triplicate are shown (mean ± SEM). C Effect of G4 on the binding of the anti-CD13 mAb WM15 to HUVEC. HUVEC were seeded at a density of 2 × 10^5 cells in 100 µL DPBS supplemented with 5% normal human serum (NHS) and incubated with a mixture of G4 peptide (0, 0.1, 1, and 10 µM) and mAb WM15 (0 or 0.13 nM) as indicated. […]

rCD13 = assay: Proteolytic effect of rCD13 on peptide G4 (mass spectrometry); format: in vitro ADME, human; conditions: G4 Lot #B 10 mM in 60 mM Tris-HCl pH 7.4; rCD13 0, 0.2, 2 µg/mL; 0, 0.5, 16 h; 37 °C; high resolution mass spectrometry
Description: Peptide G4 (Lot #B, synthetized and analyzed in-house) (10 mM, in 60 mM Tris-HCl, pH 7.4) was incubated with various amounts of rCD13 (0, 0.2 and 2 µg/mL) for 0, 0.5 and 16 h, as indicated, at 37°C. The enzyme activity was stopped by adding 10% acetic acid. Each sample was then desalted using Zip-tip C18 columns (Merck Millipore), dried in a SAVANT centrifuge, resuspended in 8 µl of 10% formic acid, and analyzed by high resolution mass spectrometry, using a Q-Exactive mass spectrometer (Thermo Scientific, Bremen, Germany) equipped with a nano-electrospray ion source (Proxeon Biosystems). Full scan spectra were acquired with the resolution set to 70000 and mass range from 300 to 1500 m/z. The mass spectra were deconvoluted using the Xtract option within the QualBrowser application of the Thermo Xcalibur software v.4.2.47.

WEHI-164 fibrosarcoma = assay: Antitumor activity in WEHI-164 fibrosarcoma-bearing mice; format: in vivo
Description: Female BALB/c mice (Charles River Laboratories, Calco, Italy), weighing 16–18 g, were subcutaneously injected into the left flank of 10^6 WEHI-164 cells (ATCC, cat. CRL-1751, Lot. 63,682,839). Dose-finding experiments were performed with groups of six mice treated with G4-TNF (4, 20, or 100 pg/dose in 100 μL of 0.9% sodium chloride containing 100 µg/ml HSA, intraperitoneally injected on day 5) or vehicle. Tumor growth was monitored daily by measuring tumor volume with calipers, as previously described. The animals were sacrificed before the tumor diameter reached 1.0–1.5 cm. To test whether the antitumor activity of G4-TNF was mediated by CD13, tumor-bearing mice (6 animals/group) were treated with a single injection of G4-TNF (100 pg/dose, i.p.) in combination with peptide CNGRC (100 µg/dose) or anti-CD13 mAb R3-63 (25 µg/dose, given 1.5 h i.p. before administration of G4-TNF) 5 days after tumor implantation.
Fig. 3 Effect of G4-TNF on tumor growth and body weight of mice bearing WEHI-164 fibrosarcomas. A Mice bearing subcutaneous WEHI-164 tumors (5–6 mice/groups) were treated 5 days after tumor implantation with a single intraperitoneal injection of G4-TNF (0, 4, 20, or 100 pg). Tumor volume and body weight after treatment were monitored daily. B Effect of mAb R3-63 (anti-murine CD13 antibody, 25 µg) and CNGRC peptide (100 µg) on the antitumor activity of G4-TNF (100 pg) (5–6 mice/group). The arrows indicate the time of treatment. *P < 0.05; **P < 0.01, by Mann–Whitney analysis of the area under the curve for each tumor, with the GraphPad Prism software (mean ± SEM)
A) Mice bearing subcutaneous WEHI-164 tumors (6 mice/groups), were treated 5-6 days after tumor implantation with a single intraperitoneal injection of murine NGR-TNF (0, 25, 50, or 100 pg). Tumor volume and body weight after treatment were monitored daily.
B) Effect of murine TNF (50 pg) on tumor growth and body weight. The arrows indicate the time of treatment (mean ± SEM).

[2] = system: rCD13 (His-tagged recombinant human CD13); assay: rCD13 (2 µg/mL) in 60 mM Tris-HCl, pH 7.4; conditions: 37°C, up to 16 h
[3] = target: His-tagged recombinant human CD13 (rCD13) (human) (UniProt P15144)
[4] = target: T2, His-tagged recombinant human CD13 (rCD13) (human, UniProt P15144 33-967); assay: steady-state enzyme inhibition kinetics; rCD13 with L-alanine-p-nitroanilide (0-1.5 mM) and … (0-900 nM), 60 mM potassium phosphate buffer, pH 7.4, 37 °C; initial velocities of the first 5 min; competitive enzyme inhibition model (GraphPad Prism); conditions: both partners purified
T2 construct: aminopeptidase N / CD13, human, extracellular domain (soluble ectodomain); also called recombinant soluble CD13; recombinant CD13 ectodomain; source: bought: Sino Biological (cat. 10051-H08H), expressed in HEK-293 cells
T2 sequence (P15144 33-967): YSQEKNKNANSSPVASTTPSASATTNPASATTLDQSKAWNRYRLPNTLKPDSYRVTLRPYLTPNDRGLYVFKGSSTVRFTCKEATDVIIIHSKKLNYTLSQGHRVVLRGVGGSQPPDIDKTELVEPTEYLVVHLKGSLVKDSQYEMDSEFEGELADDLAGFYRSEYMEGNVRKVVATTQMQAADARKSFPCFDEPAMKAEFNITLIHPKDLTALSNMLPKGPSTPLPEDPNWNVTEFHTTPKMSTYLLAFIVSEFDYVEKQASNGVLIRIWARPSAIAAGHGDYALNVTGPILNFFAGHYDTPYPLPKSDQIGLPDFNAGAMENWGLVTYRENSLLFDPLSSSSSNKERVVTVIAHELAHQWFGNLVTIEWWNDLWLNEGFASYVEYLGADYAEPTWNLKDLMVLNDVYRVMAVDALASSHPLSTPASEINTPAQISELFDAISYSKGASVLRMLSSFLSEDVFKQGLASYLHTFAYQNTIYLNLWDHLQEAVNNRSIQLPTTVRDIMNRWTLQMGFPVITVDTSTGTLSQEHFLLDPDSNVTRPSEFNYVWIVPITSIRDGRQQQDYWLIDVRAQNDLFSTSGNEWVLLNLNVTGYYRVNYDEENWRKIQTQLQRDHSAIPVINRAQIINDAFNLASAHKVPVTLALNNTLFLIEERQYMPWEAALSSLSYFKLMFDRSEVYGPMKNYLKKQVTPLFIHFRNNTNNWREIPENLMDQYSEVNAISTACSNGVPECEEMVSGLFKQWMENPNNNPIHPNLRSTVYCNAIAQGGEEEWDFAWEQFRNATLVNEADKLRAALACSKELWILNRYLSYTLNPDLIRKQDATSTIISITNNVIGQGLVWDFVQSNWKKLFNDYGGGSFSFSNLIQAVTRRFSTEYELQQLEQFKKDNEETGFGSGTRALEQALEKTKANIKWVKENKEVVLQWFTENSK

T1 sequence (P15144 33-967 limits assumed): as the sequence (P15144 33-967) above
Chain of His-tagged recombinant human CD13 (rCD13) (human) (P15144 33-967): as above

For `CC(C)[C@H](N)C(=O)NCC(=O)N[C@H]1CSSC[C@@H](C(=O)N[C@@H](CO)C(=O)O)NC(=O)[C@H](Cc2ccc(O)cc2)NC(=O)[C@H](CCCNC(=N)N)NC(=O)[C@H](CCCNC(=N)N)NC(=O)[C@H](C)NC1=O` [G4] (H-VGCARRYCS-OH; disulfide 3-8), the IC50 ([1]; 0.1 mM L-alanine 7-amido-4-methylcoumarin, 60 mM Tris-HCl pH 7.4, fluorescence, mean ± SEM of n independent experiments, read-out: IC50: peptide concentration that inhibits 50% of rCD13 enzymatic activity) was 130 ± 20 nM, the “IC50 of G4 for rCD13 lower than that of bestatin” value ([1]; Fig. 2A) was 4–5 fold and the “Cleavage of the peptide by rCD13 (stability)” value (rCD13) was “cleavage of Val-1 and Gly-2 was observed only after a long incubation time (16 h) with a large amount of enzyme (2 µg/ml)”.

With CNGRC [reference compound] the “Effect on the antitumor activity of G4-TNF” value (WEHI-164 fibrosarcoma; G4-TNF 100 pg i.p. with mAb R3-63 25 µg (1.5 h before) or CNGRC 100 µg) was “markedly reduced (almost completely)”.

With VGCARRYCS the cleaved bond [2] was “Val1-Gly2, 16 h; also recorded: Gly2-Cys3, 16 h”.

B1: peptide … (disulfide-bridged) (peptide)
peptide: VGCGRRYCSN
modifications: disulfide 3-8 (inferred)
Work on B1 yielded an IC50 of inhibition of rCD13 enzymatic activity (L-alanine-p-nitroanilide substrate) [3] of 2.01 µM.

B2: peptide VGCARRYCS (disulfide-bridged, called G4) (peptide)
peptide: VGCARRYCS
modifications: disulfide 3-8 (inferred)
notes: optimised CD13 ligand peptide; also called free G4 peptide; source: synthetic peptide
In the case of B2, the Ki [4] is reported as 21 nM and ~22 nM.

B3: TNF: murine TNF (not linked to G4) (protein)
chain: MSTESMIRDVELAEEALPQKMGGFQNSRRCLCLSLFSFLLVAGATTLFCLLNFGVIGPQRDEKFPNGLPLISSMAQTLTLRSSSQNSSDKPVAHVVANHQVEEQLEWLSQRANALLANGMDLKDNQLVVPADGLYLVYSQVLFKGQGCPDYVLLTHTVSRFAISYQEKVNLLSAVKSPCPKDTPEGAELKPWYEPIYLGGVFQLEKGDQLSAEVNLPKYLDFAESGQVYFGVIAL
B3 was tested, and the “Antitumor effect (tumor growth)” value (WEHI-164 fibrosarcoma; single intraperitoneal injection of 50 pg) was “totally inactive”.
